Laboratory results from patent US9044015B2, “Heterocyclic compounds as pesticides” (Bayer CropScience AG, priority 2010, dated 2015).
Where a name gives a salt, the structure may show the parent alone. Read-outs that look alike come from different tables or passages of the source.

What was measured:
[1] = Determination of the log P values (formic acid method)
Method: 1) Description of Method for Determination of the log P Values (Formic Aid Method)
Eluents for determination in the acidic range (pH 3.4):
Eluent A: acetonitrile+1 ml of formic acid/liter. Eluent B: water+0.9 ml of formic acid/liter.
The lambda max values were determined in the maxima of the chromatographic signals using the UV spectra from 200 nm to 400 nm.

Myzus persicae = assay: Myzus test (spray treatment); assay type: in vivo; conditions: foliar, read-out: efficacy in % (aphids killed)
Method: Solvent 78 parts by weight of acetone • • 1.5 parts by weight of dimethylformamide
Emulsifier: 0.5 part by weight of alkylaryl polyglycol ether
To prepare an appropriate active ingredient preparation, 1 part by weight of active ingredient is mixed with the stated amounts of solvent and emulsifier, and the concentrate is diluted with emulsifier-containing water to the desired concentration.

[2] = reverse-phase C18 HPLC column, pH 3.4, log P (HCOOH), preparation examples, HPLC-MS
[3] = reverse-phase C18 HPLC column, pH 3.4, logP (HCOOH), intermediates tables, HPLC reverse-phase C18, acidic range pH 3.4, 55° C.
[4] = application rate 500 g/ha, sprayed Chinese cabbage leaf discs, all stages of green peach aphid
[5] = reverse-phase C18 HPLC column, pH 3.4, logP (HCOOH), final compounds table, HPLC reverse-phase C18, acidic range pH 3.4, 55° C.

NS(=O)(=O)c1cccc(-c2cnn(-c3cccnc3)c2)n1 [XVII-1, 6-[1-(pyridin-3-yl)-1H-pyrazol-4-yl]pyridine-2-sulphonamide]
chromatographic logP [1, 2]: 0.99
chromatographic logP [1, 3]: 0.99

O=C(O)c1cccc(-c2cnc(-c3cncc(F)c3)s2)n1 [6-[2-(5-Fluoropyridin-3-yl)-1,3-thiazol-5-yl]pyridine-2-carboxylic acid]
chromatographic logP [1, 2]: 1.72

CCN(CC)S(=O)(=O)NC(=O)c1cccc(-c2cnn(-c3cccnc3)c2)n1 [Compound 40]
pest or weed control at 500 g/ha (Myzus persicae; [4]): 100%
chromatographic logP ([1]; pH 3.4, logP (HCOOH)): 2.49

O=C(NS(=O)(=O)CC(F)(F)F)c1cccc(-c2cnc(-c3cncc(F)c3)s2)n1 [Compound 57]
pest or weed control at 500 g/ha (Myzus persicae; [4]): 100%
chromatographic logP ([1]; pH 3.4, logP (HCOOH)): 2.58

CS(=O)(=O)NC(=O)c1cccc(-c2cnn(-c3cncnc3)c2)n1 [Compound 22]
pest or weed control at 500 g/ha (Myzus persicae; [4]): 100%
chromatographic logP ([1]; pH 3.4, logP (HCOOH)): 1.38

Cc1noc(C)c1S(=O)(=O)NC(=O)c1cccc(-c2cnc(-c3cncc(F)c3)s2)n1 [Compound 58]
pest or weed control at 500 g/ha (Myzus persicae; [4]): 100%
chromatographic logP [1, 5]: 3

C#CCN(C(=O)c1cccc(-c2cnc(-c3cncc(F)c3)s2)n1)S(C)(=O)=O [Compound 68]
pest or weed control at 500 g/ha (Myzus persicae; [4]): 100%
chromatographic logP ([1]; pH 3.4, logP (HCOOH)): 2.56

CS(=O)(=O)N(c1cccc(-c2cnn(-c3cncc(F)c3)c2)n1)S(C)(=O)=O [Compound 14]
pest or weed control at 500 g/ha (Myzus persicae; [4]): 90%
chromatographic logP ([1]; pH 3.4, logP (HCOOH)): 2.15

O=C(NS(=O)(=O)Cc1ccccc1)c1cccc(-c2cnc(-c3cncc(F)c3)s2)n1 [Compound 21]
pest or weed control at 500 g/ha (Myzus persicae; [4]): 80%
chromatographic logP ([1]; pH 3.4, logP (HCOOH)): 2.97

COCCS(=O)(=O)NC(=O)c1cccc(-c2nnc(-c3cncc(F)c3)s2)n1 [Compound 74]
pest or weed control at 500 g/ha (Myzus persicae; [4]): 90%
chromatographic logP ([1]; pH 3.4, logP (HCOOH)): 1.97

CS(=O)(=O)NC(=O)c1cccc(-c2cnc(-c3cncc(C#N)c3)s2)n1 [Compound 51]
pest or weed control at 500 g/ha (Myzus persicae; [4]): 100%
chromatographic logP [1, 5]: 1.95

CS(=O)(=O)N(CC#N)C(=O)c1cccc(-c2cnc(-c3cncc(F)c3)s2)n1 [Compound 65]
pest or weed control at 500 g/ha (Myzus persicae; [4]): 90%
chromatographic logP [1, 5]: 2.28

O=C(NS(=O)(=O)c1ccccc1)c1cccc(-c2cnc(-c3cncc(F)c3)s2)n1 [Compound 13]
pest or weed control at 500 g/ha (Myzus persicae; [4]): 100%
chromatographic logP [1, 5]: 2.94

CCC(=O)NS(=O)(=O)c1cccc(-c2cnn(-c3cccnc3)c2)n1 [Compound 42]
pest or weed control at 500 g/ha (Myzus persicae; [4]): 100%
chromatographic logP [1, 5]: 1.43

CCN(CC)S(=O)(=O)NC(=O)c1cccc(-c2cnn(-c3cncnc3)c2)n1 [Compound 38]
pest or weed control at 500 g/ha (Myzus persicae; [4]): 90%
chromatographic logP ([1]; pH 3.4, logP (HCOOH)): 2.36

CS(=O)(=O)NC(=O)c1cccc(Br)n1 [XII-4, 6-Bromo-N-(methylsulphonyl)pyridine-2-carboxamide]
chromatographic logP [1, 2]: 1.21
chromatographic logP [1, 3]: 1.28

CS(=O)(=O)NC(=O)c1csc(Br)n1 [XV-1, 2-Bromo-N-(methylsulphonyl)-1,3-thiazole-4-carboxamide]
chromatographic logP [1, 2]: 0.83
chromatographic logP [1, 3]: 0.82

CC(=O)NS(=O)(=O)c1cccc(-c2cnc(-c3cccnc3)s2)n1 [Compound 69, N-({6-[2-(Pyridin-3-yl)-1,3-thiazol-5-yl]pyridin-2-yl}sulphonyl)acetamide]
pest or weed control at 500 g/ha (Myzus persicae; [4]): 100%
chromatographic logP ([1]; pH 3.4, log P (HCOOH)): 1.3
chromatographic logP ([1]; pH 3.4, logP (HCOOH)): 1.3

Cc1nc(Cl)sc1S(=O)(=O)NC(=O)c1cccc(-c2cnc(-c3cncc(F)c3)s2)n1 [Compound 59]
pest or weed control at 500 g/ha (Myzus persicae; [4]): 100%
chromatographic logP [1, 5]: 3.41

N#Cc1cncc(-c2nccs2)c1 [XIII-4]
chromatographic logP [1, 3]: 1.34

N=C(N)c1cccc(-c2cnc(-c3cccnc3)s2)n1 [Compound 48]
pest or weed control at 500 g/ha (Myzus persicae; in Brassica rapa): 90%

O=C(NS(=O)(=O)Cc1ccccc1)c1cccc(-c2cnn(-c3cncnc3)c2)n1 [Compound 34]
pest or weed control at 500 g/ha (Myzus persicae; [4]): 90%
chromatographic logP [1, 5]: 2.28

O=C(NS(=O)(=O)CC(F)(F)F)c1cccc(-c2nnc(-c3cncc(F)c3)s2)n1 [Compound 73]
pest or weed control at 500 g/ha (Myzus persicae; [4]): 100%
chromatographic logP [1, 5]: 2.42

O=C(NS(=O)(=O)C1CC1)c1cccc(-c2cnc(-c3cncc(F)c3)s2)n1 [Compound 6]
pest or weed control at 500 g/ha (Myzus persicae; [4]): 100%
chromatographic logP ([1]; pH 3.4, logP (HCOOH)): 2.44

CCS(=O)(=O)Nc1cccc(-c2cnn(-c3cccnc3)c2)n1 [Compound 19]
pest or weed control at 500 g/ha (Myzus persicae; [4]): 100%
chromatographic logP ([1]; pH 3.4, logP (HCOOH)): 1.48

O=C(NS(=O)(=O)C1CC1)c1cccc(-c2cnn(-c3cncnc3)c2)n1 [Compound 28]
pest or weed control at 500 g/ha (Myzus persicae; [4]): 80%
chromatographic logP ([1]; pH 3.4, logP (HCOOH)): 1.76

CC(=O)Nc1nnc(S(=O)(=O)NC(=O)c2cccc(-c3nnc(-c4cncc(F)c4)s3)n2)s1 [Compound 76]
pest or weed control at 500 g/ha (Myzus persicae; [4]): 100%
chromatographic logP [1, 5]: 1.43

CC(C)(C)S(=O)(=O)NC(=O)c1cccc(-c2nnc(-c3cncc(F)c3)s2)n1 [Compound 77]
pest or weed control at 500 g/ha (Myzus persicae; [4]): 100%
chromatographic logP [1, 5]: 2.38

O=C(NS(=O)(=O)C(F)(F)F)c1cccc(-c2cnc(-c3cncc(F)c3)s2)n1 [Compound 2, 6-[2-(5-Fluoropyridin-3-yl)-1,3-thiazol-5-yl]-N-[(trifluoromethyl)sulphonyl]pyridine-2-carboxamide]
pest or weed control at 500 g/ha (Myzus persicae; [4]): 100%
chromatographic logP ([1]; pH 3.4, log P (HCOOH)): 1.86
chromatographic logP ([1]; pH 3.4, logP (HCOOH)): 1.86

CS(=O)(=O)NC(=O)c1cccc(-c2cnn(-c3cccnc3)c2)n1 [Compound 24]
pest or weed control at 500 g/ha (Myzus persicae; [4]): 100%
chromatographic logP ([1]; pH 3.4, logP (HCOOH)): 1.48

CCOC(=O)c1cc(-c2sc(-c3cncc(F)c3)nc2C)nn1C [Ethyl 3-[2-(5-fluoropyridin-3-yl)-4-methyl-1,3-thiazol-5-yl]-1-methyl-1H-pyrazole-5-carboxylate]
chromatographic logP ([1]; pH 3.4, log P (HCOOH)): 3.7

Cc1nc(-c2cncc(F)c2)sc1-c1cc(C(=O)O)n(C)n1 [3-[2-(5-Fluoropyridin-3-yl)-4-methyl-1,3-thiazol-5-yl]-1-methyl-1H-pyrazole-5-carboxylic acid]
chromatographic logP [1, 2]: 2.05

O=C(NS(=O)(=O)Cc1ccccc1)c1cccc(-c2cnn(-c3cccnc3)c2)n1 [Compound 35]
pest or weed control at 500 g/ha (Myzus persicae; [4]): 100%
chromatographic logP ([1]; pH 3.4, logP (HCOOH)): 2.44

CS(=O)(=O)NC(=O)c1nc(Br)cs1 [XVI-1, 4-Bromo-N-(methylsulphonyl)-1,3-thiazole-2-carboxamide]
chromatographic logP [1, 2]: 0.63
chromatographic logP [1, 3]: 0.63

O=C(NS(=O)(=O)c1ccccc1)c1cccc(Br)n1 [XII-6]
chromatographic logP [1, 3]: 2.32

COC(=O)c1cccc(-c2cnc(-c3cncc(F)c3)s2)n1 [Methyl 6-[2-(5-fluoropyridin-3-yl)-1,3-thiazol-5-yl]pyridine-2-carboxylate]
chromatographic logP ([1]; pH 3.4, log P (HCOOH)): 2.37

CCS(=O)(=O)NC(=O)c1cccc(Br)n1 [XII-5]
chromatographic logP [1, 3]: 1.54

NS(=O)(=O)c1cccc(-c2cnn(-c3cncc(F)c3)c2)n1 [XVII-2]
chromatographic logP [1, 3]: 1.44

Brc1cnn(-c2cccnc2)c1 [3-(4-Bromopyrazol-1-yl)pyridine]
chromatographic logP [1, 2]: 1.56

N#Cc1cccc(-c2cnc(-c3cncc(F)c3)s2)n1 [6-[2-(5-Fluoropyridin-3-yl)-1,3-thiazol-5-yl]pyridine-2-carbonitrile]
chromatographic logP [1, 2]: 2.51

Clc1cncc(-c2nccs2)c1 [XIII-2]
chromatographic logP [1, 3]: 1.94

Fc1cncc(-c2nccs2)c1 [XIII-1, 3-Fluoro-5-(1,3-thiazol-2-yl)pyridine]
chromatographic logP [1, 2]: 1.48
chromatographic logP [1, 3]: 1.51

CCOC(=O)C(=O)CC(=O)c1sc(-c2cncc(F)c2)nc1C [Ethyl 4-[2-(5-fluoropyridin-3-yl)-4-methyl-1,3-thiazol-5-yl]-2,4-dioxobutanoate]
chromatographic logP ([1]; pH 3.4, log P (HCOOH)): 3.37

CN(C)S(=O)(=O)NC(=O)c1cccc(Br)n1 [XII-2]
chromatographic logP [1, 3]: 1.82

O=C(NS(=O)(=O)Cc1ccccc1)c1cccc(Br)n1 [XII-1]
chromatographic logP [1, 3]: 2.4

c1ncc(-c2nccs2)cn1 [XIII-3]
chromatographic logP [1, 3]: 0.69

CS(=O)(=O)NC(=O)c1cccc(-c2cn[nH]c2)n1 [N-(Methylsulphonyl)-6-(1H-pyrazol-4-yl)pyridine-2-carboxamide]
chromatographic logP [1, 2]: 0.91

O=C(NS(=O)(=O)C1CC1)c1cccc(Br)n1 [XII-7]
chromatographic logP [1, 3]: 1.7

NS(=O)(=O)c1cccc(-c2cnn(-c3cncnc3)c2)n1 [XVII-3]
chromatographic logP ([1]; pH 3.4, logP (HCOOH)): 0.89

CC(=O)NS(=O)(=O)c1cccc(Br)n1 [XIV-2, N-[(6-Bromopyridin-2-yl)sulphonyl]acetamide]
chromatographic logP [1, 2]: 0.95
chromatographic logP [1, 3]: 0.95

CS(=O)(=O)NC(=O)c1cccc(Cl)n1 [XII-3]
chromatographic logP [1, 3]: 1.15

CS(=O)(=O)NC(=O)c1cccc(-c2cnn(-c3cncc(F)c3)c2)n1 [Compound 4, 6-[1-(5-Fluoropyridin-3-yl)-1H-pyrazol-4-yl]-N-(methylsulphonyl)pyridine-2-carboxamide]
chromatographic logP [1, 2]: 1.98

Nc1cccc(-c2cnn(-c3cccnc3)c2)n1 [6-[1-(Pyridin-3-yl)-1H-pyrazol-4-yl]pyridine-2-amine]
chromatographic logP [1, 2]: 0.3

N=C(N)c1cccc(-c2cnc(-c3cncc(F)c3)s2)n1 [Compound 79, 6-[2-(5-Fluoropyridin-3-yl)-1,3-thiazol-5-yl]pyridine-2-carboxamide amide hydrochloride (1:1)]
chromatographic logP [1, 2]: 0.71

CC1(C)OB(c2cnn(-c3cccnc3)c2)OC1(C)C [3-[4-(4,4,5,5-Tetramethyl-[1,3,2]dioxaborolan-2-yl)pyrazol-1-yl]pyridine]
chromatographic logP ([1]; pH 3.4, log P (HCOOH)): 2.19
